In patent US20230365526A1, “PYRIDAZINE DERIVATIVES FOR MODULATING NUCLEIC ACID SPLICING” (REMIX THERAPEUTICS INC., priority 2020, published 2023):
Structures can show the parent of a compound that is named as a salt. Where two headings read alike, the source gives them in different places.

Legend:
Format in all cases: cell-based
HTT mRNA = experiment: RT-qPCR splicing assay monitoring HTT canonical (CJ) and alternative (AJ) junction mRNA in A673 or K562 cells; conditions: 24 hours compound treatment, top dose 10 uM
Method: (§1) Compounds described herein were used to modulate RNA transcript abundance in cells. The expression of a target mRNA was measured by detecting the formation of an exon-exon junction in the canonical transcript (CJ). A compound mediated exon-inclusion event was detected by observing an increase in formation of a new junction with an alternative exon (AJ). Real-time qPCR assays were used to detect these splicing switches and interrogate the potency of various compounds towards different target genes. A high-throughput real time quantitative PCR (RT-qPCR) assay was developed to measure these two isoforms of the mRNA (CJ and AJ) for an exemplary gene, HTT, together with a control housekeeping gene, GAPDH or GUSB or PPIA, used for normalization. Briefly, the A673 or K562 cell line was treated with various compounds described herein (e.g., compounds of Formula (I)). After treatment, the levels of the HTT mRNA targets were determined from each sample of cell lysate by cDNA synthesis followed by qPCR.
• Cells-to-CT 1-step kit: ThermoFisher A25602, Cells-to-CT lysis reagent: ThermoFisher 4391851C, TaqMan™ Fast Virus 1-Step Master Mix: ThermoFisher 4444436 • GAPDH: VIC-PL, ThermoFisher 4326317E (Assay: Hs99999905_m1)—used for K562/suspension cell lines • GUSB: VIC-PL, ThermoFisher 4326320E (Assay: Hs99999908_m1)—used for K562/suspension cell lines • PPIA: VIC-PL, ThermoFisher 4326316E (Assay: Hs99999904_m1)—used for A673/adherent cell lines
(§2) The A673 cell line was cultured in DMEM with 10% FBS. Cells were diluted with full growth media and plated in a 96-well plate (15,000 cells in 100 ul media per well). The plate was incubated at 37° C. with 5% CO2 for 24 hours to allow cells to adhere. An 11-point 3-fold serial dilution of the compounds was made in DMSO then diluted in media in an intermediate plate. Compounds were transferred from the intermediate plate to the cell plate with the top dose at a final concentration of 10 uM in the well. Final DMSO concentration was kept at or below 0.25%. The cell plate was returned to the incubator at 37° C. with 5% CO2 for an additional 24 hours.
(§3) The K562 cell line was cultured in IMDM with 10% FBS. For K562, cells were diluted with full growth media and plated in either a 96-well plate (50,000 cells in 50 uL media per well) or a 384-well plate (8,000-40,000 cells in 45 uL media per well). An 11-point 3-fold serial dilution of the compounds were made in DMSO then diluted in media in an intermediate plate. Compound was transferred from the intermediate plate to the cell plate with the top dose at a final concentration of 10 uM in the well. Final DMSO concentration was kept at or below 0.25%. Final volume was 100 uL for 96-well plate and 50 uL for 384-well plate. The cell plate was then placed in an incubator at 37° C. with 5% CO2 for 24 hours.
(§4) The cells were then gently washed with 50 uL-100 uL cold PBS before proceeding to addition of lysis buffer. 30 uL-50 uL of room temperature lysis buffer with DNAse I (and optionally RNAsin) was added to each well. Cells were shaken/mixed thoroughly at room temperature for 5-10 minutes for lysis to take place and then 3 uL-5 uL of room temperature stop solution was added and wells were shaken/mixed again. After 2-5 minutes, the cell lysate plate was transferred to ice for RT-qPCR reaction setup. The lysates could also be frozen at −80° C. for later use.
In some cases, a direct lysis buffer was used. An appropriate volume of 3×lysis buffer (10 mM Tris, 150 mM NaCl, 1.5%-2.5% Igepal and 0.1-1 U/uL RNAsin, pH 7.4) was directly added to either K562 or A673 cells in media and mixed by pipetting 3 times. The plates were then incubated at room temperature with shaking/rocking for 20-50 minutes to allow for lysis to take place. After this time, the cell lysate plate was transferred to ice to set up for the RT-qPCR reactions. The lysates could also be frozen at −80° C. for later use. […]

HTT = experiment: Gene panel canonical junction RT-qPCR assay: HTT; conditions: read-out: HTT (IC50, decrease in CJ mRNA levels)
Method: as §1, §2, §3, §4
(§5) In some cases, a direct lysis buffer was used. An appropriate volume of 3×lysis buffer (10 mM Tris, 150 mM NaCl, 1.5%-2.5% Igepal and 0.1-1 U/uL RNAsin, pH 7.4) was directly added to either K562 or A673 cells in media and mixed by pipetting 3 times. The plates were then incubated at room temperature with shaking/rocking for 20-50 minutes to allow for lysis to take place. After this time, the cell lysate plate was transferred to ice to set up for the RT-qPCR reactions. The lysates could also be frozen at −80° C. for later use.
(§6) To set up 10 uL RT-qPCR reactions, cell lysates were transferred to 384-well qPCR plates containing the master mix according to the table below. The plates were sealed, gently vortexed, and spun down before the run. The volumes were adjusted accordingly in some instances where the reaction was carried in 20 uL. The table below summarizes the components of the RT-qPCR reactions:
(§7) The RT-qPCR reaction was performed using a QuantStudio (ThermoFisher) under the following fast cycling conditions. […]

Target C = experiment: Gene panel canonical junction RT-qPCR assay: Target C; conditions: read-out: Target C (IC50, decrease in CJ mRNA levels)
Method: as §1, §2, §3, §4, §5, §6, §7

[1] = decrease in CJ mRNA, read-out: HTT CJ AC50
[2] = increase in AJ mRNA, read-out: HTT AJ AC50

Structure (SMILES) | AC50 (HTT mRNA; [1]) | AC50 (HTT mRNA; [2]) | IC50 (HTT) | IC50 (Target C)
COc1nc(-c2ccc(OC3CC(C)(C)NC(C)(C)C3)nn2)ccc1-c1cn[nH]c1 [Compound 244, 3-[6-methoxy-5-(1H-pyrazol-4-yl)pyridin-2-yl]-6-[(2,2,6,6-tetramethylpiperidin-4-yl)oxy] pyridazine] | 100 to 1000 nM | 100 to 1000 nM | < 100 nM | 100 to 1000 nM
CC(C)Oc1nc(-c2ccc(N(C)[C@@H]3C[C@H]4CC[C@@H](C3)N4)nn2)ccc1-c1cn[nH]c1 [Compound 284, (1R,3R,5S)—N-{6-[6-isopropoxy-5-(1H-pyrazol-4-yl)pyridin-2-yl]pyridazin-3-yl}-N-methyl-8-azabicyclo[3.2.1]octan-3-amine] | < 100 nM | 1000 to 10000 nM | < 100 nM | 100 to 1000 nM
COc1nc(-c2ccc(NC3CCNCC3)nn2)ccc1-c1cnn(C)c1 [Compound 257, 6-[6-methoxy-5-(1-methylpyrazol-4-yl)pyridin-2-yl]-N-(piperidin-4-yl)pyridazin-3-amine] | 1000 to 10000 nM | 1000 to 10000 nM | 1000 to 10000 nM | 1000 to 10000 nM
COc1nc(-c2ccc(OC3CC(C)(C)NC(C)(C)C3)nn2)ccc1-c1cnn(C)c1 [Compound 245, 3-[6-methoxy-5-(1-methylpyrazol-4-yl)pyridin-2-yl]-6-[(2,2,6,6-tetramethylpiperidin-4-yl)oxy]pyridazine] | 100 to 1000 nM | 100 to 1000 nM | < 100 nM | 100 to 1000 nM
CN(c1ccc(-c2ccc(-c3cn[nH]c3)c(F)n2)nn1)[C@@H]1C[C@H]2CC[C@@H](C1)N2 [Compound 249, (1R,3R,5S)—N-{6-[6-fluoro-5-(1H-pyrazol-4-yl)pyridin-2-yl]pyridazin-3-yl}-N-methyl-8-azabicyclo[3.2.1]octan-3-amine hydrochloride] | < 100 nM | < 100 nM | < 100 nM | < 100 nM
CN(c1ccc(-c2ccc(-c3cn[nH]c3)c(Cl)n2)nn1)[C@@H]1C[C@H]2CC[C@@H](C1)N2 [Compound 250, (exo)-N-{6-[6-chloro-5-(1H-pyrazol-4-yl)pyridin-2-yl]pyridazin-3-yl}-N-methyl-8-azabicyclo[3.2.1]octan-3-amine] | < 100 nM | < 100 nM | < 100 nM | 100 to 1000 nM
COc1nc(-c2ccc(OC3CC(C)(C)NC(C)(C)C3)nn2)ccc1-c1cnn(C)n1 [Compound 258, 3-[6-methoxy-5-(2-methyl-1,2,3-triazol-4-yl)pyridin-2-yl]-6-[(2,2,6,6-tetramethylpiperidin-4-yl)oxy]pyridazine] | 100 to 1000 nM | 1000 to 10000 nM | 100 to 1000 nM | 1000 to 10000 nM
COc1nc(-c2ccc(N(C)C3CC(C)(C)NC(C)(C)C3)nn2)ccc1-c1cnn(C)n1 [Compound 259] | 100 to 1000 nM | 1000 to 10000 nM | 100 to 1000 nM | 100 to 1000 nM
CN(c1ccc(-c2ccc(-c3cn[nH]c3)c(C#N)n2)nn1)[C@@H]1C[C@H]2CC[C@@H](C1)N2 [Compound 262, 6-{6-[(1R,3R,5S)-8-azabicyclo[3.2.1]octan-3-yl(methyl)amino]pyridazin-3-yl}-3-(1H-pyrazol-4-yl)pyridine-2-carbonitrile] | < 100 nM | 100 to 1000 nM | < 100 nM | < 100 nM
COc1nc(-c2ccc(N(C)[C@H]3CCN[C@@H](C)C3)nn2)ccc1-n1cccn1 [Compound 135, 6-[6-methoxy-5-(pyrazol-1-yl)pyridin-2-yl]-N-methyl-N-[(2S,4S)-2-methylpiperidin-4-yl]pyridazin-3-amine] | > 10000 nM | > 10000 nM | > 10000 nM | < 100 nM
C[C@@H]1C[C@H](N(C)c2ccc(-c3ccc(-c4cn[nH]c4)c(=O)[nH]3)nn2)CCN1 [Compound 126, 6-(6-[methyl[(2R,4R)-2-methylpiperidin-4-yl]amino]pyridazin-3-yl)-3-(1H-pyrazol-4-yl)-1H-pyridin-2-one] | > 10000 nM | > 10000 nM | – | –
COc1nc(-c2ccc(N(C)C3CC(C)(C)NC(C)(C)C3)nn2)ccc1-c1cnn(C)c1 [Compound 247, 6-[6-methoxy-5-(1-methylpyrazol-4-yl)pyridin-2-yl]-N-methyl-N-(2,2,6,6-tetramethylpiperidin-4-yl)pyridazin-3-amine] | 100 to 1000 nM | 100 to 1000 nM | < 100 nM | 100 to 1000 nM
COc1nc(-c2ccc(OC3CC(C)(C)NC(C)(C)C3)nn2)ccc1-n1cccn1 [Compound 271, bis(3-[6-methoxy-5-(pyrazol-1-yl)pyridin-2-yl]-6-[(2,2,6,6-tetramethylpiperidin-4-yl)oxy]pyridazine)] | 1000 to 10000 nM | 1000 to 10000 nM | 1000 to 10000 nM | 1000 to 10000 nM
COc1nc(-c2ccc(NC3CCNCC3)nn2)ccc1-n1cccn1 [Compound 288, 6-[6-methoxy-5-(pyrazol-1-yl)pyridin-2-yl]-N-(piperidin-4-yl) pyridazin-3-amine] | > 10000 nM | > 10000 nM | > 10000 nM | > 10000 nM
CN(c1ccc(-c2ccc(-c3cn[nH]c3)c(=O)[nH]2)nn1)[C@@H]1C[C@H]2CC[C@@H](C1)N2 [Compound 129, 6-[6-[(1R,3S,5S)-8-azabicyclo[3.2.1]octan-3-yl(methyl)amino]pyridazin-3-yl]-3-(1H-pyrazol-4-yl)-1H-pyridin-2-one] | 1000 to 10000 nM | 1000 to 10000 nM | – | –
COc1nc(-c2ccc(N(C)C3C[C@H]4CC[C@@H](C3)N4)nn2)ccc1-c1cnn(C)n1 (some centres unmarked) [Compound 269, N-{6-[6-methoxy-5-(2-methyl-1,2,3-triazol-4-yl)pyridin-2-yl]pyridazin-3-yl}-N-methyl-8-azabicyclo[3.2.1]octan-3-amine] | 100 to 1000 nM | 100 to 1000 nM | < 100 nM | 100 to 1000 nM
COc1nc(-c2ccc(NC3CCNCC3)nn2)ccc1-c1cnn(C)n1 [Compound 270, 6-[6-methoxy-5-(2-methyl-1,2,3-triazol-4-yl)pyridin-2-yl]-N-(piperidin-4-yl)pyridazin-3-amine] | > 10000 nM | 1000 to 10000 nM | 1000 to 10000 nM | 1000 to 10000 nM
CN(c1ccc(-c2ccc(-c3cn[nH]c3)c(OC3CC3)n2)nn1)[C@@H]1C[C@H]2CC[C@@H](C1)N2 [Compound 286, (1R,3R,5S)—N-{6-[6-cyclopropoxy-5-(1H-pyrazol-4-yl)pyridin-2-yl]pyridazin-3-yl}-N-methyl-8-azabicyclo[3.2.1]octan-3-amine] | < 100 nM | < 100 nM | < 100 nM | < 100 nM
